From patent publication US20180071280A1, “MODULATORS OF CELL DEATH PROCESSES” (URIFER LTD., priority 2015, published 2018)
Where a name gives a salt, the structure may show the parent alone.

How the values were obtained:
[1] = test system: SW620 cells; test: TEM analysis of mitochondria in SW620 cells; format: cell-based, human
Description: (§1) Cells were grown in MEM or DMEM, washed twice with PBS and fixed for 5 minutes in Karnovsky fixative (2.5% glutaraldehyde, 2.5% paraformaldehyde in cacodylate buffer pH 7.4) on the tissue culture plate. Cells were then harvested, and transferred to 1.5 ml tube for further 1 h fixation at room temperature. The cells were then stored O.N at 4C° after which the samples were washed in 0.1 M cacodylate buffer and post-fixed with 1% OsO4 in 0.1 M sodium cacodylate buffer (Sigma-Aldrich, Israel) for 1 h. Samples were then dehydrated in alcohol and propylene oxide followed by embedding in Agar Mix. Thin sections (60 nm) were cut, stained with uranyl acetate and lead citrate, and observed in a FEI Tecnai transmission electron microscope.

[2] = molecular target: MINK1 (Homo sapiens, UniProt Q8N4C8); test: Kinase panel assay, MINK1; format: biochemical; conditions: above threshold
Description: (§2) Kinase panel assays were performed using the FRET-based Z′-LYTE, Lantha Screen and Adapta enzymatic kinase assay systems (Life Technologies, Carlsbad, Calif.), which were carried out using the SelectScreen Kinase Profiling Service (Life Technologies). The standard reaction contained 2 μM peptide substrate, ATP at the optimal assay concentration, 50 mM HEPES (pH 7.5), 0.01% Brij-35, 10 mM MgCl2, 1 mM EGTA, and the tested kinase. Each kinase was checked for its activity in duplicate data points (n=2) and was assayed following the detailed procedures outlined in the SelectScreen service. Percent inhibition or ATP displacement (For Lantha screen) represent a ratio of phosphorylated/ATP bound product formed in the presence of the compound compared with phosphorylated/ATP bound product formed in reactions containing 1% DMSO.
(§3) Kinome technique was used for monitoring phosphorylation events and phosphorylation targets of 0260-Fer interaction, using peptide arrays for human targets and phosphorylation-specific antibodies. Construction of peptide arrays relied on information from phosphorylation databases. The following proteins were determined as significant above the threshold of 40% kinase activity inhibition or ATP displacement to the Kinase domain site.

[3] = molecular target: MAPK8 (JNK1) (Homo sapiens, UniProt P45983); test: Kinase panel assay, MAPK8; format: biochemical; conditions: above threshold
Description: as §2, §3

[4] = test system: CC cells; test: Autophagy in CC cells (TEM, LC3 immuno-staining, WB); format: cell-based, human
Description: WB analyses were carried out as previously described before. In brief, cells were lysed in RIPA buffer mixed with protease inhibitors and separated on SDS-PAGE gel, transferred to PVDF membrane treated with 5% skim milk to exclude non-specific background and incubated with a primary antibody over-night. The membrane was incubated for 1 h with a secondary antibody conjugated to Horseradish Peroxidase (HRP). The protein-antibody complex was visualized using the SuperSignal West Pico Chemiluminescent Substrate (Thermo scientific, USA).
Cells were fixed with 4% paraformaldehyde (30 min) and incubated with Permeabilization Solution containing 0.1% Triton X-100 (Sigma-Aldrich, Israel) in PBS at room temperature for 1 h. Nonspecific binding was blocked with PBS containing 10% fetal bovine serum for 1 h at room temperature. Cells were incubated with specific antibodies diluted 1:100 overnight at 4° C. Cells were washed (5 min) in PBS containing 0.2% Tween-20 (Sigma-Aldrich, Israel) to remove non-specific binding. Bound primary antibodies were detected by Alexa Fluor® 488 goat anti-mouse IgG antibody or Alexa Fluor® 594 goat anti-rabbit IgG antibody (Molecular Probes, Invitrogen, U.K.). Nuclei were visualized by incubation with Hoechst 33342 solution for 10 min (1:500). Nonspecific staining, as determined by binding to the secondary antibody only, was negligible. The immunostained slides were examined under the fluorescence microscope AxioimagerZ1 (Zeiss, Germany) or confocal fluorescence microscope (Olympus-FV1000).
as §1, with “Samples were then dehydrated in alcohol and propylene oxide followed by embedding in Agar Mix. Thin sections (60 nm) were cut, stained with uranyl acetate and lead citrate, and observed in a FEI Tecnai transmission electron microscope.” left out

[5] = test system: Hfb cells; test: Glycolysis rate (secreted lactate) in Hfb cells; format: cell-based, human; conditions: low or high glucose
Description: Cells were grown in MEM containing 1 gr/lit glucose or in DMEM with 4.5 gr/lit glucose. Secreted lactate levels were determined using Lactate Colorimetric Assay Kit II according to the manufacturer's protocol (Biovision, USA).

[6] = test system: malignant cells (CC and MDA cells); test: Cellular ATP level (HPLC) in malignant cells; format: cell-based, human; conditions: CC cells, high glucose
Description: Quantification of intracellular ATP was carried out using HPLC as previously described.
Cells were suspended in 400 μl cold 0.4M perchloric acid solution, incubated on ice for 15 min, centrifuged at 12,000×g, neutralized with 4M K2CO3 to pH 7.5, incubated for 15 min on ice and concentrated (10,000×g). Chromatographic analyses were performed using Hitachi Elite LaChrom system at 30° C. applying supernatants to SUPELCOSIL™ LC-18-S HPLC Column (5 μm particle size, L×I.D. 25 cm×2.1 mm), flow rate 0.2 mL/min under isocratic elution conditions (50 mM potassium phosphate, 100 mM triethylamine, pH 6.5 (adjusted with phosphoric acid)):Acetonitrile (98.5:1.5)). Each analysis cycle was set to 30 min, chromatographic flow was monitored at 260 nm and integrated using EZChrom Elite Software.

[7] = molecular target: Fer (Homo sapiens, UniProt P16591); test: Immunoprecipitation of Fer from 0260 treated SW620 CC cells; format: binding; set-up: endogenous in cells; host or cells: SW620 colon carcinoma cells
Description: Protein lysates (1 mg) were prepared from tissues of adult mice according to previously described protocol, including incubation with Protein A Sepharose (GE Healthcare) to avoid nonspecific binding. Protein lysates were incubated with specific antibodies diluted 1:100 overnight at 4° C. Antigen-antibody complexes were precipitated with Protein A Sepharose, washed twice in PBS and eluted in Sample Buffer (2% SDS, 1% DTT 0.02% bromophenol blue 10% glycerol, 12.5 mM EDTA, 50 mM Tris-HCl pH 6.8) at room temperature for 10 min and at 100° C. for 8 min. Eluates were separated on SDS-PAGE and visualized by WB using specific antibodies.
To examine the effect of 0260 micellar formulation on Fer in malignant cells, the kinase was immuno-precipitated from untreated and from 0260 treated SW620 CC cells.

MAPK8 (JNK1), sequence (P45983 whole entry): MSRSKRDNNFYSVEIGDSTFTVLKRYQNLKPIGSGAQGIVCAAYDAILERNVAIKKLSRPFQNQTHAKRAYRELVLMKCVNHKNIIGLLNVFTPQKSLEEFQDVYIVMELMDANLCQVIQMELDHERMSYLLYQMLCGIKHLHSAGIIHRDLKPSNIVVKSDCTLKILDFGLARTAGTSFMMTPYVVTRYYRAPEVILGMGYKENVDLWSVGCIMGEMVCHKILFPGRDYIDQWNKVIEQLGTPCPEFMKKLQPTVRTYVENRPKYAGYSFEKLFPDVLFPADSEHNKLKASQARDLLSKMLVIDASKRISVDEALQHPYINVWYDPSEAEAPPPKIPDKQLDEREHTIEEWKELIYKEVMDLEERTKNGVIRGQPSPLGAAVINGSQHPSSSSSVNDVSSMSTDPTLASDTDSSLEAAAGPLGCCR
Fer, sequence (P16591 whole entry): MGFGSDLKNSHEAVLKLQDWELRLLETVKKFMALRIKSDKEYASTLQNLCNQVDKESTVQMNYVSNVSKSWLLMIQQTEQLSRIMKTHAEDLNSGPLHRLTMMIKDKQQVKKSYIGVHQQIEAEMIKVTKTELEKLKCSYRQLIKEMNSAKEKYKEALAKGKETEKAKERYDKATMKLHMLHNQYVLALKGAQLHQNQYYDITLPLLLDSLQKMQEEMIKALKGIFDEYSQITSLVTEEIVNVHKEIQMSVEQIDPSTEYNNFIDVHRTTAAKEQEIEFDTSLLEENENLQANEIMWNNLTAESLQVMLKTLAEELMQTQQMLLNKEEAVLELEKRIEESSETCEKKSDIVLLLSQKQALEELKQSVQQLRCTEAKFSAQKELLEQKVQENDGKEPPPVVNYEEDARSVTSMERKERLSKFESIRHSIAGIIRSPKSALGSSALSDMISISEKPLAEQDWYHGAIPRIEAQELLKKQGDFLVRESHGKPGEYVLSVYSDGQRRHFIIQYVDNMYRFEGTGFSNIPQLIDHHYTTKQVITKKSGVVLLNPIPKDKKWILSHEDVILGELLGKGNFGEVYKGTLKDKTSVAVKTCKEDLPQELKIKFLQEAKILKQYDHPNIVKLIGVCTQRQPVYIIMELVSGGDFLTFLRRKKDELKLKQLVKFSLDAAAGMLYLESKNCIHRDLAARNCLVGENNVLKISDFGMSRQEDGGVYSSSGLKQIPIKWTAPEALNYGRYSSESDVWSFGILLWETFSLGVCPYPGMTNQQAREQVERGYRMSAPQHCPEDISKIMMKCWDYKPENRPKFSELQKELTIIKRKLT
MINK1, sequence (Q8N4C8 1-320 limits assumed): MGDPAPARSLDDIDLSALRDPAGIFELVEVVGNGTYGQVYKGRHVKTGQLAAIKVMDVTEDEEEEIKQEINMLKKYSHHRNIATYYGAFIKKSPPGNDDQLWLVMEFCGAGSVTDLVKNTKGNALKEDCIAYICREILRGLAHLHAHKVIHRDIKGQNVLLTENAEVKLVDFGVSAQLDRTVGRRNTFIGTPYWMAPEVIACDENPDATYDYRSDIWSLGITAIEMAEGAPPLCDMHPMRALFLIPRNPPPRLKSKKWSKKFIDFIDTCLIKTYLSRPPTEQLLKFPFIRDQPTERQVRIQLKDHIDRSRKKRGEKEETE

CC(C)c1ccc(-c2cn3nc(N4CCC(CN5CCN(C)CC5)CC4)sc3n2)cc1 [compound 0260, tartarate salt of 6-(4-isopropyl-phenyl)-2-{4-[(4-methyl-piperazin-1-yl)methyl]piperidin-1-yl}-imidazo [2,1-b][1,3,4]thiadiazole]
mitochondria morphology (TEM) ([1]; 16 h): deformation and loss of the normal elongated shape of mitochondria
mitochondria morphology (TEM) ([1]; 24 h): the mitochondria underwent lysis
mitochondria morphology (TEM) ([1]; 24 h, high glucose conditions): mitochondrial damage was still observed
kinase activity inhibition or ATP displacement [2]: > 40%
kinase activity inhibition or ATP displacement [3]: > 40%
autophagy / autophagosomes ([4]; TEM and LC3 immuno-staining): autophagy was induced and autophagosomes accumulated
level of LC3II ([4]; WB): relative increase
elevation in the glycolytic rate [5]: not observed
effect on ATP levels under high glucose medium [6]: reducing its effect on ATP levels
IP of Fer by antibodies toward the N-terminal tail [7]: did not disable the IP of Fer
